Results on five molecules are retold here after publication PMC10377586 (Biomolecules, 2023).

The target in test [1] is T1, human MAO-B (Homo sapiens, UniProt P27338).
T1 construct: purchased Sigma Aldrich M7441
T1 sequence (P27338 1-520): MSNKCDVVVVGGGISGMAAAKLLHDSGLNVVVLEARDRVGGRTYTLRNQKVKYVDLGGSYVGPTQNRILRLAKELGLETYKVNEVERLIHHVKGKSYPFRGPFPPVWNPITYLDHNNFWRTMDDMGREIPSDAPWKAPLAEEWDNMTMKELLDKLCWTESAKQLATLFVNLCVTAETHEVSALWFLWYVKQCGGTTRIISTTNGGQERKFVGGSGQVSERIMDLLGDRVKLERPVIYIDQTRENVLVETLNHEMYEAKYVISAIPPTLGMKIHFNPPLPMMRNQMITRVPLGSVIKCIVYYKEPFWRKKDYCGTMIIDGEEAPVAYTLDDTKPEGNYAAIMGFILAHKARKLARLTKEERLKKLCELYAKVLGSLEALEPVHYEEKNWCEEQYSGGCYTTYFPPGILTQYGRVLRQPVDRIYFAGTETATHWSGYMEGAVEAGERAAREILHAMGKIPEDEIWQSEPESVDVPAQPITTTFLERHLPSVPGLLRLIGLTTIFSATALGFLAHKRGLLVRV
In words: Amplex Red monoamine oxidase assay, MAO-B. The test is classed as biochemical. The following applies: human recombinant MAO-B; read-out: MAO-B IC50 ± SEM.

For test [2], the target named is T2, human MAO-A (Homo sapiens, UniProt P21397).
T2 construct: purchased Sigma Aldrich M7316
T2 sequence (P21397 1-527): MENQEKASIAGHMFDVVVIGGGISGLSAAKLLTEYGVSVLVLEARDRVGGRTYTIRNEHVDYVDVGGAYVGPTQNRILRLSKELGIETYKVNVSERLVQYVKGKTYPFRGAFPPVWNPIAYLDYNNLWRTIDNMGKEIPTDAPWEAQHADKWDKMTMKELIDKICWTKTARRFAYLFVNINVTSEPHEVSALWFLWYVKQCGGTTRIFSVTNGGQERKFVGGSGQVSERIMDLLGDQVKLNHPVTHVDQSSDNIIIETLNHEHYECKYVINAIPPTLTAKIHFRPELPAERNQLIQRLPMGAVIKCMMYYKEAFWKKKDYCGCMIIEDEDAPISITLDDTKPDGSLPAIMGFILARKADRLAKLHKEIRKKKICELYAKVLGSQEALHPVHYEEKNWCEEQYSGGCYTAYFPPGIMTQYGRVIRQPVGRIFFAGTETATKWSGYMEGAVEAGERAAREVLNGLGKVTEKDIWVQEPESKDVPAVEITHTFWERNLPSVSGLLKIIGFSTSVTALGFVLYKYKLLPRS
In words: Amplex Red monoamine oxidase assay, MAO-A. The test is classed as biochemical. The following applies: for IC50: human recombinant MAO-A, read-out: MAO-A IC50 ± SEM; for inhibition at 1 µM: read-out: MAO-A % Inhibition ± SEM at 1 µM. The method, then: The final compounds were evaluated in vitro for their human MAO-B (hMAO-B) inhibitory potencies, and selected structures were also investigated for human MAO-A (hMAO-A) inhibition.
Inhibition activity of compounds at MAO enzyme isoforms was measured via a fluorometric method using the Amplex Red Monoamine Oxidase Assay (ThermoFisher Scientific, Waltham, MA, USA #A12214) in a 96-well plates. Human recombinant MAO-B and MAO-A enzymes (Sigma Aldrich, St. Louis, MO, USA #M7441 and #M7316) were used. The assays were conducted as previously described.

Test [3] has as its target human D2L receptor (Homo sapiens, UniProt P14416). In words: Radioligand binding [3H]-raclopride, HEK293 membranes. The following applies: HEK293 cells, human D2; read-out: hD2 [3H]-Raclopride Ki ± SEM. Here is the method:
Rat brain cortical membranes were used as source of native rat D1 receptor protein, and human D2 receptor was recombinantly expressed in HEK293 cells.
HEK293 cells with stable expression of human D2L receptor were maintained at 37 °C in a humidified atmosphere with 5% CO2 and grown in Dulbecco’s Modifier Eagle Medium containing 10% dialyzed fetal bovine serum and 500 µg/mL G418 sulfate. For membrane preparation, cells were subcultured in 150 cm^2 flasks, grown to 90% confluence, washed twice with prewarmed to 37 °C phosphate buffered saline (PBS), and pelleted by centrifugation (200× g) in PBS containing 0.1 mM EDTA and 1 mM dithiothreitol. Prior to membrane preparation, pellets were stored at −80 °C.
Cell pellets were thawed and homogenized in 10 volumes of assay buffer using an Ultra Turrax tissue homogenizer and centrifuged twice at 35,000× g for 15 min at 4 °C. The incubation buffer consisted of 50 mM Tris-HCl, 1 mM EDTA, 4 mM MgCl2, 120 mM NaCl, 5 mM KCl, 1.5 mM CaCl2, and 0.1% ascorbate. Assay was incubated in a total volume of 200 µL in 96-well microtiter plate for 1 h at 37 °C. The process of equilibration was terminated by rapid filtration through Unifilter plate with a 96-well cell harvester and radioactivity retained on the filter was quantified on a Microbeta plate reader (PerkinElmer). For competition studies, the assay samples contained radioligand 2.5 nM [^3H]-raclopride (PerkinElmer). Non-specific binding was defined with 10 µM of haloperidol. Each compound was tested in triplicate at 7 concentrations (10^−10–10^−4 M). The inhibition constants (Ki) were calculated from the Cheng–Prusoff equation [66]. Results were expressed as means of at least two separate experiments.

Test [4] deals with T3, human PDE10A1 (Homo sapiens, UniProt Q9Y233).
T3 construct: purchased BPS Biosciences
T3 sequence (Q9Y233 1-779 isoform Q9Y233-1): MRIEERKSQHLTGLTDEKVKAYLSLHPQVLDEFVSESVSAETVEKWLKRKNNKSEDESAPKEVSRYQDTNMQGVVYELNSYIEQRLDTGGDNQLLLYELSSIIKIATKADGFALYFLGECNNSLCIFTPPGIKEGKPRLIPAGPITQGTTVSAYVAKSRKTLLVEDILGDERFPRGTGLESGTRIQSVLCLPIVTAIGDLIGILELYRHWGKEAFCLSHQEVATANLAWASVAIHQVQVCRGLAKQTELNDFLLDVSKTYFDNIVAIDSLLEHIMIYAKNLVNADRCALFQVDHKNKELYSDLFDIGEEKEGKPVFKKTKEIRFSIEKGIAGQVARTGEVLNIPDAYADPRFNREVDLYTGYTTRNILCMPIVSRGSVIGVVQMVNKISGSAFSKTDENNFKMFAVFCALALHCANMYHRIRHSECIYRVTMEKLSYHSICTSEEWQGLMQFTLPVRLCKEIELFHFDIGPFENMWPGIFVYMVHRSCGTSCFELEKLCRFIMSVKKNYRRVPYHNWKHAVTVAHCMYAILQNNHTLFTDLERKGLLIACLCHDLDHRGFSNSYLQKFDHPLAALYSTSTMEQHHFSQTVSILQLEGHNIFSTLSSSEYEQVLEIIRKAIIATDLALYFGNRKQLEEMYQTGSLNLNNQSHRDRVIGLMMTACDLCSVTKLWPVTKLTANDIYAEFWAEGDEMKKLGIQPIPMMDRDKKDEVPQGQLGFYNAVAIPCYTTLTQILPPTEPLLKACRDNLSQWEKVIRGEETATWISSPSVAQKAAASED
Kind of test: PDElight HTS cAMP phosphodiesterase assay, PDE10A1. The following applies: for inhibition at 10 µM: read-out: PDE 10A1 % Inhibition ± SEM at 10 µM; for IC50: read-out: PDE 10A1 IC50 ± SEM. The test is classed as biochemical. The method, then:
Further biological evaluation of the presented compound library was performed determining inhibitory potencies against selected human PDE isoforms, namely, PDE4 and PDE10 (for results see Table 3).
Tested and reference compounds were dissolved in dimethyl sulfoxide (DMSO) at a concentration of 10 mM and further diluted in assay buffer (10 mM Tris-HCl, 10 mM magnesium chloride and 0.05% Tween-20; pH 7.4). Inhibition of human PDE10A and 4B1 was measured using PDElight HTS cAMP phosphodiesterase assay kit (Lonza, Basel, Switzerland) according to manufacturer’s recommendations. Then, 10 ng of PDE10A and 5 ng of PDE4B1 (BPS Biosciences, San Diego, CA, USA) in appropriate buffer was incubated with reference and tested compound for 20 min. […] Then PDELight AMP Detection Reagent was added and incubated 10 min. All reactions were carried out at 37 °C in 96 white-walled, half-area-well plates (PerkinElmer). Luminescence was measured in a multifunction plate reader (POLARstar Omega, BMG Labtech, Ortenberg, Germany). The percentage of inhibition and IC50s were computed using GraphPad Prism Version 6.0 software.

Sequence of human D2L receptor (P14416 whole entry): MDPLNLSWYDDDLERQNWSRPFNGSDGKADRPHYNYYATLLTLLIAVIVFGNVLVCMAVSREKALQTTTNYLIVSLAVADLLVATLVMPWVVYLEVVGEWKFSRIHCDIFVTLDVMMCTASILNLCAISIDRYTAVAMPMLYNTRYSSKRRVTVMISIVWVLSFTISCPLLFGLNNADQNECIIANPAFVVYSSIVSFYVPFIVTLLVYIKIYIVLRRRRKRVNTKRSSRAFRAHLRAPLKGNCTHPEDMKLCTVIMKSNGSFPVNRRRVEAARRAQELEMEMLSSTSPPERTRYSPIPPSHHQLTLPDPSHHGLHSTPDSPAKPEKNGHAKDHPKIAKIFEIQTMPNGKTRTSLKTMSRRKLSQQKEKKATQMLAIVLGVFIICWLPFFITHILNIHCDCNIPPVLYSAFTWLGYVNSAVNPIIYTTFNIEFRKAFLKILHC

For the molecule `CCCCn1c(=O)c2c(nc(NCCc3ccc(O)c(O)c3)n2CCC)n(CCCC)c1=O` [Compound 13, 1,3-Dibutyl-8-((3,4-dihydroxyphenethyl)amino)-7-propyl-3,7-dihydro-1H-purine-2,6-dione], in test [1], the IC50 was found to be 0.0818 ± 0.0197 µM. Also, in test [2], the concentration for half-maximal inhibition (IC50) was more than 1 µM and the inhibition at 1 µM was found to be 36%. Besides, the inhibitory constant (Ki) in test [3] worked out at 4.39 ± 0.43 µM. Moreover, in test [4], the inhibition at 10 µM was 26% and the IC50 is more than 10 µM.

In the case of `Cn1c(=O)c2c(nc3n2CCCN3CCc2ccc(O)c(O)c2)n(C)c1=O` [Compound 20a, 9-(3,4-Dihydroxyphenethyl)-1,3-dimethyl-6,7,8,9-tetrahydropyrimido[2,1-f]purine-2,4(1H,3H)-dione], the half-inhibitory concentration (IC50) in test [1] was determined as 0.121 ± 0.023 µM. Moreover, in test [2], the half-maximal inhibitory concentration (IC50) was more than 1 µM and the inhibition at 1 µM turned out to be 29%. Further, in test [3], the Ki came to 6.68 ± 0.87 µM. For the same molecule, in test [4], the inhibition at 10 µM was 35% and the IC50 is more than 10 µM.

For `Cn1c(=O)c2c(nc3n2CCCCN3CCc2ccc(O)c(O)c2)n(C)c1=O` [Compound 20b, 10-(3,4-Dihydroxyphenethyl)-1,3-dimethyl-7,8,9,10-tetrahydro-1H-[1, 3]diazepino[2,1-f]purine-2,4(3H,6H)-dione], the IC50 in test [1] was 0.101 ± 0.021 µM; in test [2], more than 1 µM; in test [4], 30.7 ± 0.2 µM. In addition, the inhibition at 1 µM in test [2] is 44%. Also, the Ki in test [3] turned out to be 10.7 ± 1.4 µM.

For the molecule `CCCn1c(=O)c2c(nc3n2CCCN3CCc2ccc(O)c(O)c2)n(CCC)c1=O` [Compound 21, 9-(3,4-Dihydroxyphenethyl)-1,3-dipropyl-6,7,8,9-tetrahydropyrimido[2,1-f]purine-2,4(1H,3H)-dione], the IC50 in test [1] is 0.157 ± 0.039 µM; in test [2] it was approximately 1 µM; in test [4], 31 ± 0.1 µM. In test [2], the inhibition at 1 µM turned out to be 61%. Further, in test [3], the Ki worked out at 12.7 ± 2.8 µM.

With `CCCCn1c(=O)c2c(nc3n2CCCN3CCc2ccc(O)c(O)c2)n(CCCC)c1=O` [Compound 22, 1,3-Dibutyl-9-(3,4-dihydroxyphenethyl)-6,7,8,9-tetrahydropyrimido[2,1-f]purine-2,4(1H,3H)-dione], the IC50 in test [1] came to 0.17 ± 0.03 µM. Moreover, in test [2], the IC50 was more than 1 µM and the inhibition at 1 µM came to 43%. Further, the inhibition constant (Ki) in test [3] came to 16.6 ± 2.3 µM. Besides, in test [4], the inhibition at 10 µM was 25% and the IC50 was more than 10 µM.

For orientation: IC50 means the concentration at which inhibition is half-maximal. For orientation: inhibition means the drop in the measured response relative to a control, in per cent. A word on the Ki: it is the equilibrium dissociation constant of an inhibitor or competing ligand from its target.
